Results: patent publication US10111874B2, “Combination therapies for treatment of cancer” (Araxes Pharma LLC, priority 2014, dated 2018)

Biological target: T1, KRAS G12C 1-169, his-tagged protein, GDP-loaded (Homo sapiens, UniProt P01116, G12C)
T1 construct: KRAS G12C 1-169, his-tagged protein, GDP-loaded
Experiment: Biochemical assay: covalent binding to KRAS G12C analyzed by mass spectrometry; also: test concentration or dose not given here
Conditions: compounds 48-246, measured at 2 h

T1 sequence (P01116 1-169 isoform P01116-2 G12C): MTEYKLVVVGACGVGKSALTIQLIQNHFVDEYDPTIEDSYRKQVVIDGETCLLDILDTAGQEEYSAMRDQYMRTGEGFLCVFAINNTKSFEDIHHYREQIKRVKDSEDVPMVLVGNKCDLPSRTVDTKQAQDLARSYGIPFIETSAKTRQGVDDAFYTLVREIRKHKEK

| Structure (SMILES) | Binding % |
| --- | --- |
| C=CC(=O)N1CCN(c2ncnc3cc(-c4ccccc4C(F)(F)F)c(C(F)(F)F)cc23)CC1 [Compound I-212, 1-(4-(6-(trifluoromethyl)-7-(2-(trifluoromethyl)phenyl)quinazolin-4-yl)piperazin-1-yl)prop-2-en-1-one] | ++++ (++++indicates binding activity greater than 75%) |
| C=CC(=O)N1CCN(c2ncnc3cc(-c4ccccc4S(N)(=O)=O)c(Cl)cc23)CC1 [Compound I-213, 2-(4-(4-acryloylpiperaqzin-1-yl)-6-chloroquinazolin-7-yl)benzenesulfonamide] | ++ (++indicates binding activity greater than 25% and up to 50%) |
| C=CC(=O)N1CCN(c2ncnc3cc(-c4ccnc5ccccc45)c(Cl)cc23)CC1 [Compound I-214, 1-(4-(6-chloro-7-(quinolin-4-yl)quinazolin-4-yl)piperazin-1-yl)prop-2-en-1-one] | + (+indicates binding activity from 5% to 25%) |
| C=CC(=O)N1CCN(c2ncnc3cc(-c4c(F)ccc(F)c4O)c(Cl)cc23)CC1 [Compound I-216, 1-(4-(6-chloro-7-(3,6-difluoro-2-hydroxyphenyl)quinazolin-4-yl)piperazin-1-yl)prop-2-en-1-one] | + (+indicates binding activity from 5% to 25%) |
| C=CC(=O)N1CCN(c2ncnc3c(F)c(-c4cc(O)ccc4Cl)c(Cl)cc23)CC1 [Compound I-217, 1-(4-(6-chloro-7-(2-chloro-5-hydroxyphenyl)-8-fluoroquinazolin-4-yl)piperazin-1-yl)prop-2-en-1-one] | +++ (+++indicates binding activity greater than 50% and up to 75%) |
| C=CC(=O)N1CCN(c2ncnc3cc(-c4c(O)ccc5ccccc45)c(C(F)(F)F)cc23)CC1 [Compound I-218, 1-(4-(7-(2-hydroxynaphthalen-1-yl)-6-(trifluoromethyl)quinazolin-4-yl)piperazin-1-yl)prop-2-en-1-one] | +++ (+++indicates binding activity greater than 50% and up to 75%) |
| CN(C)C/C=C/C(=O)N1CCN(c2ncnc3cc(-c4ccc(F)cc4F)c(Cl)cc23)CC1 [Compound I-219, (E)-1-(4-(6-chloro-7-(2,4-difluorophenyl)quinazolin-4-yl)piperazin-1-yl)-4-(dimethylamino)but-2-en-1-one] | + (+indicates binding activity from 5% to 25%) |
| C=CC(=O)N1CCN(c2c(C#N)cnc3cc(-c4c(O)cccc4F)c(Cl)cc23)CC1 [Compound I-220, 4-(4-acryloylpiperazin-- yl)-6-chloro-7-(2-fluoro-6-hydroxyphenyl)quinoline-3-carbonitrile] | +++ (+++indicates binding activity greater than 50% and up to 75%) |
| C=CC(=O)N1CCN(c2cnnc3cc(-c4ccc(F)cc4F)c(Cl)cc23)CC1 [Compound I-221, 1-(4-(6-chloro-7-(2,4-difluorophenyl)cinnolin-4-yl)piperazin-1-yl)prop-2-en-1-one] | ++ (++indicates binding activity greater than 25% and up to 50%) |
| C=CC(=O)N1CCN(c2ncnc3cc(-c4ccccc4C4(C)CC4)c(Cl)cc23)CC1 [Compound I-222, 1-(4-(6-chloro-7-(2-(1-methylcyclopropyl)phenyl)quinazolin-4-yl)piperazin-1-yl)prop-2-en-1-one] | +++ (+++indicates binding activity greater than 50% and up to 75%) |
| C=CC(=O)N1CCN(c2ncnc3cc(-c4cccc5c4CCCN5)c(Cl)cc23)CC1 [Compound I-223, 1-(4-(6-chloro-7-(1,2,3,4-tetrahydroquinolin-5-yl)quinazolin-4-yl)piperazin-1-yl)prop-2-en-1-one] | + (+indicates binding activity from 5% to 25%) |
| C=CC(=O)N1CCN(c2ncnc3c(F)c(-c4ccc(F)cc4F)c(Cl)cc23)CC1 [Compound I-224, 1-(4-(6-chloro-7-(2,4-difluorophenyl)-8-fluoroquinazolin-4-yl)piperazin-1-yl)prop-2-en-1-one] | +++ (+++indicates binding activity greater than 50% and up to 75%) |
| C=CC(=O)N1CCN(c2cnnc3cc(-c4ccccc4C(F)(F)F)c(Cl)cc23)CC1 [Compound I-225, 1-(4-(6-chloro-7-(2-(trifluoromethyl)phenyl)cinnolin-4-yl)piperazin-1-yl)prop-2-en-1-one] | ++ (++indicates binding activity greater than 25% and up to 50%) |
| C=CC(=O)N1CCN(c2ncnc3cc(-c4nn(C)c5ccccc45)c(Cl)cc23)CC1 [Compound I-226, 1-(4-(6-chloro-7-(1-methyl-1H-indazol-3-yl)quinazolin-4-yl)piperazin-1-yl)prop-2-en-1-one] | + (+indicates binding activity from 5% to 25%) |
| C=CC(=O)N1CCN(c2ncnc3c(F)c(-c4c(O)cccc4F)c(Cl)cc23)CC1 [Compound I-227, 1-(4-(6-chloro-8-fluoro-7-(2-fluoro-6-hydroxyphenyl)quinazolin-4-yl)piperazin-1-yl)prop-2-en-1-one] | ++++ (++++indicates binding activity greater than 75%) |
| CN(C)C/C=C/C(=O)N1CCN(c2ncnc3cc(-c4ccccc4F)c(Cl)cc23)CC1 [Compound I-228, (E)0-1-(4-(6-chloro-7-(2-fluorophenyl)quinazolin-4-yl)piperazin-1-yl)-4-(dimethylamino)but-2-en-1-one] | + (+indicates binding activity from 5% to 25%) |

| Structure (SMILES) | Binding % |
| --- | --- |
| CN(C)C/C=C/C(=O)N1CCN(c2ncnc3c(F)c(-c4ccccc4F)c(Cl)cc23)CC1 [Compound I-229, (E)-1-(4-(6-chloro-8-fluoro-7-(2-fluorophenyl)quinazolin-4-yl)piperazin-1-yl)-4-(dimethylamino)but-2-en-1-one] | ++ (++indicates binding activity greater than 25% and up to 50%) |
| CN(C)C/C=C/C(=O)N1CCN(c2ncnc3c(F)c(-c4ccccc4F)c(-c4ccccc4F)cc23)CC1 [Compound I-230, (E)-4-(dimethylamino)-1-(4-(8-fluoro-6,7-bis(2-fluorophenyl)quinazolin-4-yl)piperazin-1-yl)but-2-en-1-one] | + (+indicates binding activity from 5% to 25%) |
| C=CC(=O)N1CCN(c2cnnc3cc(-c4c(O)cccc4F)c(Cl)cc23)CC1 [Compound I-231, 1-(4-(6-chloro-7-(2-fluoro-6-hydroxyphenyl)ciinolin-4-yl)piperazin-1-yl)prop-2-en-1-one] | +++ (+++indicates binding activity greater than 50% and up to 75%) |
| C=CC(=O)N1CCN(c2ncnc3cc(-c4c(F)cccc4C(N)=O)c(Cl)cc23)CC1 [Compound I-232, 2-(4-(4-acryloylpiperazin-1-yl)-6-chloroquinazolin-7-yl)-3-fluorobenzamide] | + (+indicates binding activity from 5% to 25%) |
| C=CC(=O)N1CCN(c2ncnc3cc(-c4c(O)cccc4C(F)(F)F)c(Cl)cc23)CC1 [Compound I-233, 1-(4-(6-chloro-7-(2-hydroxy-6-(trifluoromethyl)phenyl)quinazolin-4-yl)piperazin-1-yl)prop-2-en-1-one] | +++ (+++indicates binding activity greater than 50% and up to 75%) |
| C=CC(=O)N1CCN(c2ncnc3c(F)c(-c4c(C)ccc5[nH]ncc45)c(Cl)cc23)CC1 [Compound I-234, 1-(4-(6-chloro-8-fluoro-7-(5-methyl-1H-indazol-4-yl)quinazolin-4-yl)piperazin-1-yl)prop-2-en-1-one] | ++++ (++++indicates binding activity greater than 75%) |
| C=CC(=O)N1CCN(c2ncnc3c(F)c(-c4c(O)ccc5ccccc45)c(Cl)cc23)CC1 [Compound I-235, 1-(4-(6-chloro-8-fluoro-7-(2-hydroxynaphthalen-1-yl)quinazolin-4-yl)piperazin-1-yl)prop-2-en-1-one] | +++ (+++indicates binding activity greater than 50% and up to 75%) |
| C=CC(=O)N1CCN(c2ncnc3c(F)c(-c4ccccc4C(N)=O)c(Cl)cc23)CC1 [Compound I-236, 2-(4-(4-acryloylpiperazin-1-yl)-6-chloro-8-fluoroquinazolin-7-yl)benzamide] | +++ (+++indicates binding activity greater than 50% and up to 75%) |
| C=CC(=O)N1CCN(c2ncnc3cc(-c4c(C)ccc5[nH]ncc45)c(C(F)(F)F)cc23)CC1 [Compound I-237, 1-(4-(7-(5-methyl-1H-indazol-4-yl)-6-(trifluoromethyl)quinazolin-4-yl)piperazin-1-yl)prop-2-en-1-one] | ++++ (++++indicates binding activity greater than 75%) |
| C=CC(=O)N1CCN(c2cnnc3cc(-c4c(C)ccc5[nH]ncc45)c(Cl)cc23)CC1 [Compound I-238, 1-(4-(6-chloro-7-(5-methyl-1H-indazol-4-yl)cinnolin-4-yl)piperazin-1-yl)prop-2-en-1-one] | +++ (+++indicates binding activity greater than 50% and up to 75%) |
| CCOC(=O)/C=C/C(=O)N1CCN(c2ncnc3cc(-c4ccc(F)cc4F)c(Cl)cc23)CC1 [Compound I-239, (E)-ethyl 4-(4-(6-chloro-7-(2,4-difluorophenyl)quinazolin-4-yl)piperazin-1-yl)-4-oxobut-2-enoate] | +++ (+++indicates binding activity greater than 50% and up to 75%) |
| C=CC(=O)N1CCN(c2ncnc3cc(-c4cccc5ccc(=O)[nH]c45)c(Cl)cc23)CC1 [Compound I-240, 8-(4-(4-acryloylpiperazin-1-yl)-6-chloroquinazolin-7-yl)quinolin-2(1H)-one] | +++ (+++indicates binding activity greater than 50% and up to 75%) |
| CC(C)/C=C(\C#N)C(=O)N1CCN(c2ncnc3cc(-c4ccccc4F)c(Cl)cc23)CC1 [Compound I-241, (E)-2-(4-(6-chloro-7-(2-fluorophenyl)quinazolin-4-yl)piperazine-1-carbonyl)-4-methylpent-2-enenitrile] | + (+indicates binding activity from 5% to 25%) |
| C=CC(=O)N1CCN(c2c(C#N)cnc3c(F)c(-c4ccccc4F)c(Cl)cc23)CC1 [Compound I-242, 4-(4-acryloylpiperazin-1-yl)-6-chloro-8-fluoro-7-(2-fluorophenyl)quinoline-3-carbonitrile] | ++++ (++++indicates binding activity greater than 75%) |
| C=CC(=O)N1CCN(c2ncnc3c(F)c(-c4ccccc4C(F)(F)F)c(Cl)cc23)CC1CC#N (stereo not shown) [Compound I-243, 2-(1-acryloyl-4-(6-chloro-8-fluoro-7-(2-(trifluoromethyl)phenyl)quinazolin-4-yl)piperazin-2-yl)acetonitrile] | ++++ (++++indicates binding activity greater than 75%) |
